Experimental data reported in US20050143463A1, “Method of inhibiting angiogenesis” (THE QUEEN ELIZABETH HOSPITAL RESEARCH FOUNDATION INC., priority 2002, published 2005).

Experiments:
[1] = test system: Human umbilical vein endothelial cells (HUVEC); assay: HUVEC proliferation assay (tritiated thymidine uptake); format: cell-based; conditions: for HUVEC proliferation (in words) / inhibition at 400 µM: 400 μM concentration; for HUVEC proliferation (in words): tritiated thymidine uptake; for inhibition at 400 µM: percentage of control cells with no added agent (Table 3), read-out: Percentage inhibition of HUVEC proliferation; for inhibition of HUVEC proliferation in vitro, dose dependent (in words): dose dependent manner
Protocol: Human umbilical vein endothelial cells (HUVEC) were seeded in 96-well flat bottomed tissue culture plates at a density of 2.5-5×10^4 cells/well and treated with various dilutions of agents. Cells were cultured in RPMI medium containing 20% FCS, Penicillin/Streptomycin in a 5% CO2 atmosphere at 37° C. After 24 to 48 hours of incubation, cells were pulsed with 1 μCi of tritiated thymidine for 6 hours. The pulsed cells were trypsinised to detach from the wells and then harvested in a TOMTEC Cell Harvester onto glass fibre filters, which were dried and immersed in scintillation fluid and counted in a Wallac Microbeta scintillation counter. The results were reported as mean cpm±SD.

[2] = test system: chicken chorioallantoic membrane (CAM); assay: Chicken chorioallantoic membrane (CAM) assay for angiogenesis; format: in vivo; conditions: for cytotoxicity to the embryo: chicken embryo, CAM assay; for inhibition of angiogenesis in the CAM assay, dose dependent (in words): dose dependent manner; for effect of the lowest dose on vein length, artery length, total vessel length and vein diameter (in words): lowest dose (25 nmol); for Vein length (%) / Artery length (%) / Total vessel length (%) / Vein Diameter (%) / CAM Increase (%): % of control, Mean ± SEM
Protocol: Fertilised chicken eggs (HiChick Breeding Co, Kapunda, South Australia) were incubated for three days at 38° C. On Day 3 the embryos were cracked out of the egg and into a cup made of plastic piping, with plastic film stretched over the top to form a hammock for the egg to be suspended in. Two ml of DMEM containing penicillin and streptomycin was added to each cup prior to the egg being added. A petri dish on the top maintained sterility. Incubation continued in a humidified 37° C. incubator.
On Day 4 the chorioallantoic membrane (CAM) begins to grow, and pictures were taken of each embryo at ×5 to measure the CAM area using image analysis software (Video Pro 32, Leading Edge Pty Ltd, South Australia).
Embryos were then grouped according to their CAM area, with a control embryo in each for comparison. Grouping is critical as in these early developmental stages changes in the CAM growth are dramatic. Relatively small differences in size on Day 4 translate to large differences in the CAM on Day 5. Treatment was applied in methylcellulose discs, which were dried under vacuum overnight. The methylcellulose discs were applied to the top of the CAM, and at the beginning of treatment were at least three to four-fold bigger than the CAM area, meaning treatment covered the entire CAM surface.
On Day 5 skim milk with contrast medium was injected into the CAM. Pictures were then taken at various levels of magnification up to ×63. Quantitative measurements were made from ×5 pictures. CAM area, and vein and artery lengths were measured using image analysis (Video Pro 32, Leading Edge Pty Ltd, South Australia). Relative vessel lengths were then calculated as the total length/CAM area. Statistical analysis was made using SigmaStat and OneWay ANOVA with p<0.05 as the level of significance.

[3] = 25 nmol on methylcellulose disc
[4] = 50 nmol on methylcellulose disc
[5] = 100 nmol on methylcellulose disc

With `CC(C)CCCCCCCCCC(=O)O` [11-methyl dodecanoic acid] as the compound, how does the “HUVEC proliferation (in words)” value [1] read?
The value was “inhibited”.

And the inhibition at 400 µM ([1]; Homo sapiens, HUVEC)?
The inhibition at 400 µM was 83%.

And the “inhibition of HUVEC proliferation in vitro, dose dependent (in words)” value (“inhibition of HUVEC proliferation … (in words)” for short) [1]?
The value was “inhibit the proliferation”.

What does the source list for `CCC(C)CCCCCCCCCCCCC(=O)O` (stereo not shown) [14-methyl hexadecanoic acid]?
HUVEC proliferation (in words) [1]: inhibited; inhibition at 400 µM ([1]; Homo sapiens, HUVEC): 41%; inhibition of HUVEC proliferation in vitro, dose dependent (in words) [1]: inhibit the proliferation

For `CC(C)CCCCCCCCCCCC(=O)O` [13-MTA, 13-methyltetradecanoic Acid], which “HUVEC proliferation (in words)” value [1] is on record?
The value was “inhibited”.

What about the inhibition at 400 µM ([1]; Homo sapiens, HUVEC) of the same compound?
The inhibition at 400 µM was 19%.

And the “inhibition of HUVEC proliferation … (in words)” value [1]?
Its value is “inhibit the proliferation”.

And the “number of branching capillaries sprouting from the main vessels” value (“number” for short) ([2]; 100 nmol)?
Its value is “reduction”.

And the vessel area ([2]; 100 nmol)?
Its vessel area is “diminished”.

What about the “cytotoxicity to the embryo” value [2] of the same compound?
The value was “not cytotoxic”.

What about the “inhibition of angiogenesis in the CAM assay, dose dependent (in words)” value (“inhibition of angiogenesis” for short) [2] of the same compound?
The value was “inhibit angiogenesis”.

And the “effect of the lowest dose on vein length, artery length, total vessel length and vein diameter (in words)” value (from here on “effect of the lowest dose on vein length”) [2]?
The value was “inhibited”.

Which “HUVEC proliferation (in words)” value [1] does the source give for `CCC(C)CCCCCCCCCC(=O)O` (stereo not shown) [11-methyl tridecanoic acid] here?
The value was “inhibited”.

And the inhibition at 400 µM ([1]; Homo sapiens, HUVEC)?
Its inhibition at 400 µM is 42%.

What about the “inhibition of HUVEC proliferation … (in words)” value [1] of the same compound?
Its value is “inhibit the proliferation”.

What does the source list for `CC(C)CCCCCCCCCCCCCC(=O)O` [15-methyl hexadecanoic acid]?
HUVEC proliferation (in words) [1]: inhibited; inhibition at 400 µM ([1]; Homo sapiens, HUVEC): 63%; inhibition of HUVEC proliferation in vitro, dose dependent (in words) [1]: inhibit the proliferation

Which results are given for `CCC(C)CCCCCCCCCCCCCC(=O)O` (stereo not shown) [15-methyl heptadecanoic acid]?
HUVEC proliferation (in words) [1]: inhibited; inhibition at 400 µM ([1]; Homo sapiens, HUVEC): 49%; inhibition of HUVEC proliferation in vitro, dose dependent (in words) [1]: inhibit the proliferation

What does the source list for `CC(C)CCCCCCCCCCCCCCCC(=O)O` [17-MODA, 17-methyloctadecanoic Acid]?
Vein length (%) [2, 3]: 81.3 ± 16.8%; Artery length (%) ([2]; 25 nmol): 82.6 ± 18.0%; Total vessel length (%) ([2]; 25 nmol): 81.9 ± 16.9%; Vein Diameter (%) ([2]; 25 nmol): 71.6 ± 13.4%; Vein length (%) [2, 4]: 112.8 ± 9.4%; Artery length (%) ([2]; 50 nmol): 97.0 ± 11.7%; Total vessel length (%) ([2]; 50 nmol): 104.2 ± 10.4%; Vein Diameter (%) ([2]; 50 nmol): 81.3 ± 8.4%; number of branching capillaries sprouting from the main vessels ([2]; 100 nmol): reduction; vessel area ([2]; 100 nmol): diminished; Vein length (%) [2, 5]: 94.3 ± 18.9%; Artery length (%) ([2]; 100 nmol): 97.2 ± 17.4%; Total vessel length (%) ([2]; 100 nmol): 95.9 ± 18.1%; Vein Diameter (%) ([2]; 100 nmol): 70.0 ± 15.0%; cytotoxicity to the embryo [2]: not cytotoxic; inhibition of angiogenesis in the CAM assay, dose dependent (in words) [2]: inhibit angiogenesis; effect of the lowest dose on vein length, artery length, total vessel length and vein diameter (in words) [2]: inhibited

16-methyltetradecanoic acid was tested. Which “inhibition of angiogenesis” value [2] did it give?
Its value is “inhibit angiogenesis”.

Which results are given for `CO[C@H]1C[C@@H]2CC[C@@H](C)[C@@](O)(O2)C(=O)C(=O)N2CCCC[C@H]2C(=O)O[C@H]([C@H](C)C[C@@H]2CC[C@@H](O)[C@H](OC)C2)CC(=O)[C@H](C)/C=C(\C)[C@@H](O)[C@@H](OC)C(=O)[C@H](C)C[C@H](C)/C=C/C=C/C=C/1C` [rapamycin, reference compound]?
% Inhibition of HUVEC proliferation ([1]; 0.1 nM rapamycin, 24 hours (Table 2)): 72.8%; inhibition at 0.0001 µM ([1]; Homo sapiens, HUVEC, 24 h, 0.1 nM rapamycin, 24 hours (Table 2)): 73%; inhibition at 0.001 µM ([1]; Homo sapiens, HUVEC, 24 h, 1 nM rapamycin, 24 hours (Table 2)): ~80%

What does the source list for `CCC(C)CCCCCCCCCCCC(=O)O` (stereo not shown) [13-methyl pentadecanoic acid]?
HUVEC proliferation (in words) [1]: inhibited; inhibition at 400 µM ([1]; Homo sapiens, HUVEC): 21%; inhibition of HUVEC proliferation in vitro, dose dependent (in words) [1]: inhibit the proliferation

Which results are given for `CC(C)CCCCCCCCCCC(=O)O` [12-methyl tridecanoic acid]?
HUVEC proliferation (in words) [1]: inhibited; inhibition at 400 µM ([1]; Homo sapiens, HUVEC): 35%; inhibition of HUVEC proliferation in vitro, dose dependent (in words) [1]: inhibit the proliferation

Which “Vein length (%)” value [2, 3] does the source give for `CCCCCCCCC(C)CCCCCCCCC(=O)O` (stereo not shown) [10-MODA, 10-methyloctadecanoic Acid] here?
Its value is 88.4 ± 8.8%.

And the “Artery length (%)” value ([2]; 25 nmol)?
The value was 85.7 ± 6.2%.

What about the “CAM Increase (%)” value ([2]; 25 nmol) of the same compound?
The value was 101.9 ± 11.2%.

And the “Total vessel length (%)” value ([2]; 25 nmol)?
Its value is 85.7 ± 5.4%.

What about the “Vein Diameter (%)” value ([2]; 25 nmol) of the same compound?
The value was 82.9 ± 3.0%.

And the “Vein length (%)” value [2, 4]?
The value was 85.8 ± 14.1%.

What about the “Artery length (%)” value ([2]; 50 nmol) of the same compound?
Its value is 94.3 ± 6.3%.

What about the “CAM Increase (%)” value ([2]; 50 nmol) of the same compound?
The value was 120.2 ± 25.5%.

And the “Total vessel length (%)” value ([2]; 50 nmol)?
Its value is 88.9 ± 7.0%.

And the “Vein Diameter (%)” value ([2]; 50 nmol)?
The value was 90.2 ± 9.8%.

What about the “number” value ([2]; 100 nmol) of the same compound?
The value was “reduction”.

And the vessel area ([2]; 100 nmol)?
Its vessel area is “diminished”.

What about the “Vein length (%)” value [2, 5] of the same compound?
The value was 70.9 ± 22.5%.

What about the “CAM Increase (%)” value ([2]; 100 nmol) of the same compound?
The value was 68.2 ± 8.6%.

And the “Vein Diameter (%)” value ([2]; 100 nmol)?
The value was 76.1 ± 16.2%.

And the “cytotoxicity to the embryo” value [2]?
The value was “not cytotoxic”.

And the “inhibition of angiogenesis” value [2]?
Its value is “inhibit angiogenesis”.

What about the “effect of the lowest dose on vein length” value [2] of the same compound?
Its value is “inhibited”.

What does the source list for `CC(C)CCCCCCCCCCCCCCC(=O)O` [16-methyl heptadecanoic acid]?
HUVEC proliferation (in words) [1]: inhibited; inhibition at 400 µM ([1]; Homo sapiens, HUVEC): 19%; inhibition of HUVEC proliferation in vitro, dose dependent (in words) [1]: inhibit the proliferation

`CC(C)CCCCCCCCCCCCC(=O)O` [14-MPDA, 14-methylpentadecanoic Acid] was tested. Which “HUVEC proliferation (in words)” value [1] did it give?
The value was “inhibited”.

And the inhibition at 400 µM ([1]; Homo sapiens, HUVEC)?
The inhibition at 400 µM was 7%.

What about the “inhibition of HUVEC proliferation … (in words)” value [1] of the same compound?
Its value is “inhibit the proliferation”.

And the “Vein length (%)” value [2, 3]?
Its value is 89.6 ± 10.1%.

What about the “Artery length (%)” value ([2]; 25 nmol) of the same compound?
Its value is 81.3 ± 11.4%.

And the “Total vessel length (%)” value ([2]; 25 nmol)?
Its value is 84.7 ± 8.7%.

And the “Vein Diameter (%)” value ([2]; 25 nmol)?
Its value is 90.8 ± 9.2%.

What about the “Vein length (%)” value [2, 4] of the same compound?
The value was 80.9 ± 14.3%.

What about the “Artery length (%)” value ([2]; 50 nmol) of the same compound?
The value was 81.4 ± 11.7%.

And the “Total vessel length (%)” value ([2]; 50 nmol)?
The value was 80.9 ± 12.3%.

What about the “Vein Diameter (%)” value ([2]; 50 nmol) of the same compound?
The value was 81.8 ± 14.1%.

And the “number” value ([2]; 100 nmol)?
Its value is “reduction”.

What about the vessel area ([2]; 100 nmol) of the same compound?
The vessel area was “diminished”.

And the “Vein length (%)” value [2, 5]?
The value was 63.3 ± 5.1^1%.

And the “Artery length (%)” value ([2]; 100 nmol)?
The value was 83.5 ± 9.3%.

What about the “Total vessel length (%)” value ([2]; 100 nmol) of the same compound?
The value was 74.0 ± 6.6%.

And the “Vein Diameter (%)” value ([2]; 100 nmol)?
Its value is 76.3 ± 10.2%.

And the “cytotoxicity to the embryo” value [2]?
Its value is “not cytotoxic”.

What about the “inhibition of angiogenesis” value [2] of the same compound?
The value was “inhibit angiogenesis”.

What about the “effect of the lowest dose on vein length” value [2] of the same compound?
The value was “inhibited”.

For `CC(C)CCCCCCCCC(=O)O` [10-methyl undecanoic acid], which “HUVEC proliferation (in words)” value [1] is on record?
Its value is “inhibited”.

And the inhibition at 400 µM ([1]; Homo sapiens, HUVEC)?
Its inhibition at 400 µM is 84%.

And the “inhibition of HUVEC proliferation … (in words)” value [1]?
The value was “inhibit the proliferation”.
